Read-outs that look alike come from different tables or passages of the source.
Legend:
THRβ = molecular target: T1, THRβ (Homo sapiens, UniProt P10828); assay: HTRF test of agonist-induced SRC3-2 coactivator peptide recruitment to THRβ-LBD; assay type: biochemical; settings: for agonistic activity on THRβ compared with Resmetirom / selectivity of agonistic effect for THRβ over THRα: result in words
T1 sequence (P10828 217-461 limits assumed): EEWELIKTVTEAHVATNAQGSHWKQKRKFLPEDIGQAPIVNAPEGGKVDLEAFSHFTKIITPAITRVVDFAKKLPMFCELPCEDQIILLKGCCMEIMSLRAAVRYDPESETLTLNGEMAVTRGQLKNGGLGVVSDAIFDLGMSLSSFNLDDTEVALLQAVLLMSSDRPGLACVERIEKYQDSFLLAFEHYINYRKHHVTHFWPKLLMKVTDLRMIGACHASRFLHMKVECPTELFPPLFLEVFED
Procedure: (§1) 1. Experiment of binding of compounds to THRβ and THRα
(§2) Test principle: The effect of test compounds on THRβ and THRα was tested by using a method of HTRF. An MAb Anti GST-Eu cryptate antibody binds to GST-tagged THRα-LBD (or THRβ-LBD), while Streptavidin-XL665 binds to a biotin-labeled SRC3-2 coactivator peptide. […] At the same time, the resulting decrease in the distance between XL665-labeled SRC3-2 and an Eu-anti-GST antibody increases a THRFRET signal. The agonistic capacity at this target was assessed by the effect of compounds on the activity of THRα-LBD (THRβ-LBD) at different concentrations.
Test method: THRβ test procedures:
(§3) • (1) a 1×reaction solution was prepared. • (2) Preparation of compounds: the compound test starting concentration was 20 µM, 3-fold dilution was performed, 10 concentrations were set, and duplicate testing was set for each concentration. 100-fold dilution was performed in a 384-well Source plate to a corresponding solution with a final concentration, and then 200 nL of the solution was transferred to a 384-well reaction plate with Echo550 to be tested. 200 nL of 100% DMSO and a test article were respectively transferred to Min and Max wells. • (3) A 2×protein solution was prepared from the 1×reaction solution. • (4) A 4×SRC3-2 solution was prepared from the 1×reaction solution. • (5) A mixed solution of 4×GST-Eu cryptate and XL665 was prepared from the 1×reaction solution. • (6) 10 µl of the 2×protein solution was added to each well of the reaction plate, centrifugation was performed at 1000 rpm for 1 min, and incubation was performed at room temperature for 30 min. • (7) 5 µl of the 4×SRC3-2 solution was added to each well of the reaction plate, and centrifugation was performed at 1000 rpm for 1 min. • (8) 5 µL of the mixed solution of 4×GST-Eu cryptate and XL665 was added to each well of the reaction plate, centrifugation was performed at 1000 rpm for 1 min, and incubation was performed at 25°C. • (9) A fluorescence signal was read by using EnVision.

THRα = THRα (Homo sapiens, UniProt P10827); assay: HTRF test of agonist-induced SRC3-2 coactivator peptide recruitment to THRα-LBD; assay type: biochemical; settings: for EC50: HTRF, starting concentration 20 µM, 3-fold dilution, 10 concentrations, duplicate; for agonistic activity on THRα: result in words
Procedure: as §1, §2, §3
THRα test procedures were the same as above.

[1] = In vivo pharmacokinetic study of elimination phase half-life after single IV bolus; set-up: species or system Sprague Dawley rats; settings: Sprague-Dawley, rat, whole blood, intravenous, I.V bolus, 5 mg/kg, rats, read-out: Elimination phase half-life (T1/2) (converted)
Procedure: Blood samples were collected from animals (IV group) before administration and at time points of 0.083 h, 0.25 h, 0.5 h, 1 h, 2 h, 4 h, 8 h, and 24 h after the end of administration. • Sample treatment: prior to blood collection, a centrifuge tube with 10 µl of EDTA-K2 and 1.2 mL of 50% acetonitrile-DMSO (a volume ratio of whole blood to 50% acetonitrile-DMSO is approximately 1:4) was placed in an ice box filled with crushed ice. The collected blood was added to the centrifuge tube, vortexed for at least 5 min, and then temporarily stored and transported in the ice box filled with crushed ice; and the blood was centrifuged at 12,000 g for 10 min at 4°C, wherein centrifugation was completed within 1 h after blood collection. A whole blood supernatant after centrifugation was transferred to a newly labeled tube, and transferred to -60°C or below for storage for analytical testing.

NASH model of B-DIO mice = assay: Efficacy test in NASH model of B-DIO mice (HFD + CCL4); assay type: in vivo
From the text: An objective of this experiment was to evaluate the pharmacodynamics of compounds of the present invention by using an NASH model of B-DIO mice.
Five C57BL/6 mice on normal diet were assigned to an experimental group G1, and 25 B-DIO mice were randomly assigned to five experimental groups according to the body weight, with 5 mice in each group.
The day of grouping was Day-1, intraperitoneal injection was started on Day 0 in the groups G2-G6 for CCL4 modeling, the concentration of a modeling agent is 0.2 µl/g, the modeling frequency was twice a week, and administration was started on Day 0.
The body weight was measured twice a week after grouping. At the end of the experiment (Day 26), the mice were fasted for 4 h, and non-anticoagulated blood of the mice in the groups G1-G6 was collected and centrifuged, and a serum was taken for blood biochemical testing. Livers in the groups G1-G6 were collected and weighed, 20 mg of the liver was weighed for determination of TC and TG, and the remaining liver was placed in formalin for fixation for pathological observation.

[2] = Comparison of compound metabolites by human liver microsome incubation (LC-MS/MS); assay type: in vitro ADME; settings: 10 µM compound, human liver microsome 1.0 mg/mL, β-NADPH 1.0 mM, 37°C, 60 min
Procedure: The purpose of this experiment was to evaluate the comparison of the content of major metabolites of human liver microsome incubated compounds.
Sample treatment: a sample was precipitated with acetonitrile (ACN) containing 0.1% formic acid in a ratio of 1:2, and further centrifuged. A supernatant was dried with a nitrogen flow. A residue was reconstituted in […] of 10% ACN and 90% H2O containing 0.1% formic acid. […] of the reconstituted material was injected into an LC-MS/MS system for analysis.

[3] = HTRF, starting concentration 20 µM, 3-fold dilution, 10 concentrations, duplicate, read-out: THRβ (EC50)
[4] = liver, Day 26, 3 mg/kg I.G. Q.D., HFD+CCL4, mean±standard error

Chain of THRα (P10827 148-410 isoform P10827-2 limits assumed, other chains not shown): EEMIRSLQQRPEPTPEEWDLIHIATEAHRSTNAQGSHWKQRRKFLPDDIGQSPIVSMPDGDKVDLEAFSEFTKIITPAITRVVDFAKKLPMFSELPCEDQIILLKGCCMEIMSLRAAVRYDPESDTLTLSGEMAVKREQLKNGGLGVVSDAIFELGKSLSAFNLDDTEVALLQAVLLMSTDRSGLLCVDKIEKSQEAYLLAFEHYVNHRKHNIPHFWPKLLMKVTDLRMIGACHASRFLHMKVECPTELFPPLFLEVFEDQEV

Structure (SMILES)	EC50 (THRβ; [3]) [nM]	agonistic activity on THRβ compared with Resmetirom (THRβ)	selectivity of agonistic effect for THRβ over THRα (THRβ)	EC50 (THRα) [nM]	agonistic activity on THRα (THRα)	other results
Cc1c(C(C)C)c(Oc2c(Cl)cc(-n3nc(CF)c(=O)[nH]c3=O)cc2Cl)n[nH]c1=O [Compound 17]		significantly better than that of Resmetirom	selective agonistic effects on THRβ	> 5000	weak agonistic activity on THRα	EC50 (THRβ): 46 nM
CC(C)c1cc(Oc2c(Cl)cc(-n3nc(C#N)c(=O)[nH]c3=O)cc2Cl)n[nH]c1=O [Resmetirom, reference compound]						half-life [1]: 2.98 h; area proportion of lipid droplets in the liver (oil red O) compared with the model group G2 (NASH model of B-DIO mice; G3, 3 mg/kg, Day 26, result in words (FIG. 8)): decreased but no significant difference was seen; liver fibrosis (Sirius red) compared with the model group G2 (NASH model of B-DIO mice; G3, 3 mg/kg, Day 26, result in words (FIG. 9)): certain improvement effects on liver fibrosis; TC (NASH model of B-DIO mice; [4]): 56.44 ± 0.85 µmol/g; TG (NASH model of B-DIO mice; [4]): 74.26 ± 4.34 µmol/g; TG (NASH model of B-DIO mice; serum, Day 26, 3 mg/kg I.G. Q.D., HFD+CCL4, mean±standard error): 1.17 ± 0.06 mM
Cc1c(Oc2c(Cl)cc(-n3nc(CF)c(=O)[nH]c3=O)cc2Cl)n[nH]c(=O)c1C(C)C [Compound 16]	11	significantly better than that of Resmetirom	selective agonistic effects on THRβ	> 5000	weak agonistic activity on THRα	Monooxidized metabolite percent content (%) [2]: 9.7%; Monooxidized metabolite percent content (%) ([2]; listed as compound 16): 9.7%

Second part, led by results:

EC50 (THRβ; [3]) [nM]	Structure (SMILES)	agonistic activity on THRβ compared with Resmetirom (THRβ)	selectivity of agonistic effect for THRβ over THRα (THRβ)	EC50 (THRα) [nM]	agonistic activity on THRα (THRα)	other results
20	[2H]C([2H])([2H])C(c1cc(Oc2c(Cl)cc(-n3nc(CF)c(=O)[nH]c3=O)cc2Cl)n[nH]c1=O)C([2H])([2H])[2H] [Compound 1]	significantly better than that of Resmetirom		326		
22	CC(C)c1cc(Oc2c(Cl)cc(-n3nc(CF)c(=O)[nH]c3=O)cc2Cl)n[nH]c1=O [Compound X1, reference compound]			95		
